In experiment [1] the test system is human breast cancer cell BT-474. Description: Inhibitory action on breast cancer cell BT-474 proliferation in vitro. It counts as cell-based. Conditions: 120 h, BT-474 cells, cultured 5 days, SRB staining. Here is the method:
A suspension of human breast cancer cell BT-474 (100 μl (6,000 cells)) were sown to a 96-well microplate and cultured in an incubator (37° C., 5% carbon dioxide). On the following day, 100 μl of a solution of each test compound, which was previously diluted 2-fold, was added, and the cells were cultured for 5 days. After the culture medium containing the test compound was removed, the cells were washed and fixed with 50% trichloroacetic acid, after which a 0.4% (w/v) SRB solution (dissolved in 1% acetic acid) was added to fix and stain the cell protein (Skehan et al., Journal of the National Cancer Institute, Vol. 82, pp. 1107-1112, 1990). After washing with a 1% acetic acid solution, 100 μl of an extract (10 mM Tris solution) was added to extract the pigment, and absorbance was measured at an absorption wavelength of 550 nm to quantify the amount of cells as protein content. Taking as 100% the protein content for the control group, which received no test compound solution, the ratio of the residual protein content for each treatment group was determined, and the compound concentration required to achieve 50% suppression of the residual cell content relative to the control (IC50 value) was calculated.

Experiment [2] concerns the target T1, EGF receptor intracellular domain protein (Homo sapiens, UniProt P00533).
T1 construct: encoding EGF receptor intracellular domain region, so that the protein contains an N-terminal Flag tag; made in house; host or cells: SF-21 insect cells, recombinant baculovirus BAC-EGFR
The experiment in a line: Determination of EGF receptor kinase inhibitory activity. It counts as biochemical. Conditions: 1.0 μM test compound; biotinyl-poly-Glu:Tyr (4:1), AlphaScreen, 25° C., 10 min; read-out: EGF receptor kinase Inhibitory rate (%) at 1.0 μM. Here is the method:
Human EGF receptor gene was cloned by RT-PCR using total RNA prepared from A431 cells as a template. The primer for RT-PCR was prepared from nucleotide sequence (Genbank Accession XM—167493) information of EGF receptor gene by adding a nucleotide sequence encoding flag peptide and a restriction enzyme recognition sequence to a nucleotide sequence (2182-3810 of Genbank Accession XM—167493) encoding EGF receptor intracellular domain region, so that the protein contains an N-terminal Flag tag. The primer nucleotide sequence is shown below.
The RT reaction was conducted using SuperScript First-Strand Synthesis System for RT-PCR (Invitrogen) and the PCR reaction was conducted using a KOD-plus kit (TOYOBO). The obtained PCR product was electrophoresed on agarose gel (1%), the DNA fragment amplified by PCR was recovered from the gel, and then digested with restriction enzymes Sal I and Sph I. The DNA treated with the restriction enzymes was electrophoresed on agarose gel (1%), and the obtained DNA fragment was recovered and ligated to plasmid pFASTBAC1 (Invitrogen) digested with restriction enzymes Sal I and Sph I to give expression plasmid pFB-EGFR. The nucleotide sequence of insertion fragment was confirmed and found to be identical with the nucleotide sequence (2182-3810 of Genbank Accession XM—167493) of EGFR intracellular domain. Furthermore, using BAC-TO-BAC Baculovirus Expression System (Invitrogen), virus stock BAC-EGFR of recombinant baculovirus was prepared.
SF-21 cells were sown at 1×10^6 cells/mL to Sf-900II SFM medium (1 L, Invitrogen) containing 10% fetal bovine serum (trace), 50 mg/L gentamicin (Invitrogen) and 0.1% Pluronic F-68 (Invitrogen), and shaking culture was performed using a 2 L volume Erlenmeyer flask at 27° C., 100 rpm. After culturing for 24 hrs, recombinant baculovirus BAC-EGFR (13.4 mL) was added, and the mixture was further cultured for 3 days. The culture medium was centrifuged at 2,000 rpm for 5 min. to give virus-infected cells. The infected cells were washed with a phosphate buffered saline (Invitrogen), centrifuged under the same conditions, and the cells were preserved at −80° C. The cryopreserved cells were thawed in ice, suspended in buffer A (50 mM Tris buffer (30 mL, pH7.4) containing 20% glycerol, 0.15 M NaCl) supplemented with Complete Protease Inhibitor (Boehringer), and ruptured 3 times with a Polytron homogenizer (Kinematica) at 20,000 rpm for 30 sec. The ruptured medium was clarified by centrifugation at 40,000 rpm for 30 min. and filtered with a 0.45 μm filter. The filtrate was passed through a column packed with Anti-FLAG M2 Affinity Gel (4 mL, Sigma) at a flow rate of about 0.5 mL/min. The column was washed with buffer A, and eluted with buffer A containing 100 μg/mL of FLAG peptide. The eluate was concentrated with Vivaspin 20 (Vivascience) having a molecular weight cut off of 30K. The buffer of this concentrate was exchanged using NAPE 25 column (Amersham Bioscience) equilibrated with buffer A. The fractions containing EGF receptor intracellular domain protein were collected, glycerol was added to the final concentration of 50% and cryopreserved at −80° C.
A test compound dissolved in dimethyl sulfoxide (DMSO) was diluted with a buffer (50 mM Tris-HCl (pH 7.5), 5 mM MgCl2, 5 mM MnCl2, 2 mM dithiothreitol, 0.01% Tween-20). To this compound solution (5 μL) was added a buffer (10 μL) containing 250 ng/mL of EGF receptor intracellular domain protein and 250 ng/mL of biotin labeled polypeptide biotinyl-poly-Glu:Tyr (4:1) (CIS bio International). […]
For orientation: In Alpha technology, singlet oxygen from a donor bead excites a nearby acceptor bead.

Molecules are shown by their SMILES.

T1 sequence (P00533 669-1210 limits assumed): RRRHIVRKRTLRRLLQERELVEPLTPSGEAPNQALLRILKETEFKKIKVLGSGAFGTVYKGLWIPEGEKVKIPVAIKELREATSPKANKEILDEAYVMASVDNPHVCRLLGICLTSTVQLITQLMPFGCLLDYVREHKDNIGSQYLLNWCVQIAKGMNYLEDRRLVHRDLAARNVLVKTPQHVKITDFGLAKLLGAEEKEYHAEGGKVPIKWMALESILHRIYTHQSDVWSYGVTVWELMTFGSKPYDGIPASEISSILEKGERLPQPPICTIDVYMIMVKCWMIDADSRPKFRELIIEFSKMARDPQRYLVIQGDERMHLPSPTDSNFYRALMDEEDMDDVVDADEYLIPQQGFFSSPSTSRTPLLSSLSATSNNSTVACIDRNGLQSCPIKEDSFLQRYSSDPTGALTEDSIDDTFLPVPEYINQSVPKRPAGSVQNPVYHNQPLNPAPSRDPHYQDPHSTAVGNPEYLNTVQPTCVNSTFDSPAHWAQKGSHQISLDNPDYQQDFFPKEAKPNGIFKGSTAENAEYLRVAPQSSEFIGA

Take `CN(C)C/C=C/C(=O)NCc1cc2ncnc(Nc3ccc(OCc4cccc(F)c4)c(Cl)c3)c2[nH]1` [Example 82, (2E)-N-{[4-({3-chloro-4-[(3-fluorobenzyl)oxy]phenyl}amino)-5H-pyrrolo[3,2-d]pyrimidin-6-yl]methyl}-4-(dimethylamino)but-2-enamide]: the IC50 (as a rule, the concentration that inhibits the measured activity by half) in experiment [1] is less than 100 nM.
`CN(C)C/C=C/C(=O)NC/C=C/c1cc2ncnc(Nc3ccc(OCc4cccc(F)c4)c(Cl)c3)c2[nH]1` [Example 92, (2E)-N-{(2E)-3-[4-({3-chloro-4-[(3-fluorobenzyl)oxy]phenyl}amino)-5H-pyrrolo[3,2-d]pyrimidin-6-yl]prop-2-enyl}-4-(dimethylamino)but-2-enamide]: the inhibition at 1 µM in experiment [2] stood at 98%. Moreover, the IC50 in experiment [1] was less than 100 nM.
For the compound `CC(C)(C(=O)NCCn1ccc2ncnc(Nc3ccc(Oc4cccc(C(F)(F)F)c4)c(Cl)c3)c21)S(C)(=O)=O` [Example 169, N-{2-[4-({3-chloro-4-[3-(trifluoromethyl)phenoxy]phenyl}amino)-5H-pyrrolo[3,2-d]pyrimidin-5-yl]ethyl}-2-methyl-2-(methylsulfonyl)propanamide], the IC50 in experiment [1] was less than 100 nM.
On the same count and under the same terms, as for `CC(C)(C)S(=O)(=O)CCOCCn1ccc2ncnc(Nc3ccc(Oc4cccc(C(F)(F)F)c4)c(Cl)c3)c21` [Example 176, 5-{2-[2-(tert-butylsulfonyl)ethoxy]ethyl}-N-{3-chloro-4-[3-(trifluoromethyl)phenoxy]phenyl}-5H-pyrrolo[3,2-d]pyrimidin-4-amine], the figure is less than 100 nM.

The values are drawn from patent US8178543B2, “Bi- and tricyclic fused pyrimidines as tyrosine kinase inhibitors” (Takeda Pharmaceutical Company Limited, priority 2004, dated 2012).
